From PMC5218480 (PLoS ONE, 2017)

Tested on: MV-4-11 cells
Experiment: Gene expression microarray analysis (Affymetrix PrimeView) and GSEA
Assay type: cell-based, human
Parameters: RFU PODN (11730768_x_at) / Fold change /veh PODN (11730768_x_at) / RFU LINC00158 (11744669_a_at) / Fold change /veh LINC00158 (11744669_a_at) / RFU DUSP10 (11751237_a_at) / Fold change /veh DUSP10 (11751237_a_at) / RFU ID3 (11757404_x_at) / Fold change /veh ID3 (11757404_x_at) / RFU PLEKHG5 (11737974_s_at) / Fold change /veh PLEKHG5 (11737974_s_at) / RFU LRRC4B (11730491_at) / Fold change /veh LRRC4B (11730491_at) / RFU GIMAP4 (11747438_a_at) / Fold change /veh GIMAP4 (11747438_a_at) / RFU KRT8 (11758183_x_at) / Fold change /veh KRT8 (11758183_x_at) / RFU CNN1 (11734310_a_at) / Fold change /veh CNN1 (11734310_a_at) / RFU VPS37D (11726825_at) / Fold change /veh VPS37D (11726825_at) / RFU C10orf10 (11716522_x_at) / Fold change /veh C10orf10 (11716522_x_at) / RFU KIR2DL2 /// KIR2DL4 /// KIR2DL5A /// KIR2DL5B /// KIR2DS1 /// KIR2DS2 /// KIR2DS3 /// KIR2DS4 /// KIR3DL3 /// KIR3DL3 /// KIR3DS1 (11738374_at) / Fold change /veh KIR2DL2 /// KIR2DL4 /// KIR2DL5A /// KIR2DL5B /// KIR2DS1 /// KIR2DS2 /// KIR2DS3 /// KIR2DS4 /// KIR3DL3 /// KIR3DL3 /// KIR3DS1 (11738374_at) / RFU C1QL1 (11718748_at) / Fold change /veh C1QL1 (11718748_at) / RFU TMPRSS4 (11747572_a_at) / Fold change /veh TMPRSS4 (11747572_a_at) / RFU HAMP (11756126_x_at) / Fold change /veh HAMP (11756126_x_at) / RFU RNFT2 (11725882_a_at) / Fold change /veh RNFT2 (11725882_a_at) / RFU NR4A2 (11747474_a_at) / Fold change /veh NR4A2 (11747474_a_at) / RFU ABCC12 (11746883_a_at) / Fold change /veh ABCC12 (11746883_a_at) / RFU TMEM136 (11760407_x_at) / Fold change /veh TMEM136 (11760407_x_at) / RFU CLDN22 /// WWC2 (11732394_at) / Fold change /veh CLDN22 /// WWC2 (11732394_at) / RFU HLA-DPB1 (11760878_x_at) / Fold change /veh HLA-DPB1 (11760878_x_at) / RFU SPINT1 (11716480_a_at) / Fold change /veh SPINT1 (11716480_a_at) / RFU GAP43 (11754022_s_at) / Fold change /veh GAP43 (11754022_s_at) / RFU A4GNT (11735810_at) / Fold change /veh A4GNT (11735810_at) / RFU PRB3 (11715151_x_at) / Fold change /veh PRB3 (11715151_x_at) / RFU TUBB4B (11761932_at) / Fold change /veh TUBB4B (11761932_at) / RFU CAPN14 (11732068_a_at) / Fold change /veh CAPN14 (11732068_a_at) / RFU TMCC2 (11721928_a_at) / Fold change /veh TMCC2 (11721928_a_at) / RFU IRGQ (11745062_a_at) / Fold change /veh IRGQ (11745062_a_at) / RFU FAM174B (11720279_a_at) / Fold change /veh FAM174B (11720279_a_at) / RFU TMPRSS4 (11748680_a_at) / Fold change /veh TMPRSS4 (11748680_a_at) / RFU FAM212B (11763350_a_at) / Fold change /veh FAM212B (11763350_a_at) / RFU PLEKHG5 (11743358_a_at) / Fold change /veh PLEKHG5 (11743358_a_at) / RFU ZSCAN30 (11745921_a_at) / Fold change /veh ZSCAN30 (11745921_a_at) / RFU CMKLR1 (11741424_a_at) / Fold change /veh CMKLR1 (11741424_a_at) / RFU LOC101060620 /// MAPK8IP1 (11723275_at) / Fold change /veh LOC101060620 /// MAPK8IP1 (11723275_at) / RFU SPTSSB (11747773_x_at) / Fold change /veh SPTSSB (11747773_x_at) / RFU PRSS12 (11739890_at) / Fold change /veh PRSS12 (11739890_at) / RFU BIN1 (11741810_x_at) / Fold change /veh BIN1 (11741810_x_at) / RFU WNT11 (11732464_a_at) / Fold change /veh WNT11 (11732464_a_at) / RFU C10orf10 (11716521_a_at) / Fold change /veh C10orf10 (11716521_a_at) / RFU C5orf56 (11738089_at) / Fold change /veh C5orf56 (11738089_at) / RFU CYB561 (11721691_x_at) / Fold change /veh CYB561 (11721691_x_at) / RFU ANKRD19P (11752326_a_at) / Fold change /veh ANKRD19P (11752326_a_at) / RFU OR2T12 /// OR2T33 /// OR2T8 (11738714_s_at) / Fold change /veh OR2T12 /// OR2T33 /// OR2T8 (11738714_s_at) / RFU VCAN (11748164_a_at) / Fold change /veh VCAN (11748164_a_at) / RFU JSRP1 (11732532_at) / Fold change /veh JSRP1 (11732532_at) / RFU KRTAP10-11 (11738290_x_at) / Fold change /veh KRTAP10-11 (11738290_x_at) / RFU MYO3A (11730013_a_at) / Fold change /veh MYO3A (11730013_a_at) / RFU EBF3 (11725865_a_at) / Fold change /veh EBF3 (11725865_a_at) / RFU CAMK2N1 (11719241_x_at) / Fold change /veh CAMK2N1 (11719241_x_at) / RFU C5orf56 (11738088_a_at) / Fold change /veh C5orf56 (11738088_a_at) / RFU OLFML3 (11715873_a_at) / Fold change /veh OLFML3 (11715873_a_at) / RFU LOC100653217 /// NTM (11731650_a_at) / Fold change /veh LOC100653217 /// NTM (11731650_a_at) / RFU MAPK11 (11762145_a_at) / Fold change /veh MAPK11 (11762145_a_at) / RFU FIZ1 (11724087_x_at) / Fold change /veh FIZ1 (11724087_x_at) / RFU OASL (11726364_x_at) / Fold change /veh OASL (11726364_x_at) / RFU SOX15 (11748057_x_at) / Fold change /veh SOX15 (11748057_x_at) / RFU CD79A (11719716_a_at) / Fold change /veh CD79A (11719716_a_at) / RFU HIST1H1D (11736915_at) / Fold change /veh HIST1H1D (11736915_at) / RFU CASKIN2 (11723855_a_at) / Fold change /veh CASKIN2 (11723855_a_at) / RFU LOC730098 (11760151_x_at) / Fold change /veh LOC730098 (11760151_x_at) / RFU OR4N2 (11742367_at) / Fold change /veh OR4N2 (11742367_at) / RFU PRRT2 (11749266_a_at) / Fold change /veh PRRT2 (11749266_a_at) / RFU SNX32 (11753110_a_at) / Fold change /veh SNX32 (11753110_a_at) / RFU CDHR5 (11726645_a_at) / Fold change /veh CDHR5 (11726645_a_at) / RFU RCAN1 (11760418_a_at) / Fold change /veh RCAN1 (11760418_a_at) / RFU FAM167A (11723789_a_at) / Fold change /veh FAM167A (11723789_a_at) / RFU FAM26E (11764081_at) / Fold change /veh FAM26E (11764081_at) / RFU ISYNA1 (11749810_s_at) / Fold change /veh ISYNA1 (11749810_s_at) / RFU ACY1 (11761880_at) / Fold change /veh ACY1 (11761880_at) / RFU 11764098_at / Fold change /veh 11764098_at / RFU SAMD14 (11745864_x_at) / Fold change /veh SAMD14 (11745864_x_at) / RFU NPB (11741838_a_at) / Fold change /veh NPB (11741838_a_at) / RFU TMPRSS6 (11731388_a_at) / Fold change /veh TMPRSS6 (11731388_a_at) / RFU KRTAP10-2 (11738614_at) / Fold change /veh KRTAP10-2 (11738614_at) / RFU ARHGAP8 /// PRR5-ARHGAP8 (11727945_x_at) / Fold change /veh ARHGAP8 /// PRR5-ARHGAP8 (11727945_x_at) / RFU KRTAP5-7 /// NADSYN1 (11734609_at) / Fold change /veh KRTAP5-7 /// NADSYN1 (11734609_at) / RFU RASL12 (11751679_a_at) / Fold change /veh RASL12 (11751679_a_at) / RFU CDKN2B (11736163_a_at) / Fold change /veh CDKN2B (11736163_a_at) / RFU PRF1 (11729649_at) / Fold change /veh PRF1 (11729649_at) / RFU, ZNF638 /// ZNF638-IT1 / Fold change vs veh, ZNF638 /// ZNF638-IT1 / RFU, PANK3 / Fold change vs veh, PANK3 / RFU, SH3YL1 / Fold change vs veh, SH3YL1 / RFU, ZEB2 / Fold change vs veh, ZEB2 / RFU, NRIP1 / Fold change vs veh, NRIP1 / RFU, PTTG1IP / Fold change vs veh, PTTG1IP / RFU, CAPN2 / Fold change vs veh, CAPN2 / RFU, MED14 / Fold change vs veh, MED14 / RFU, SNORA58 / Fold change vs veh, SNORA58 / RFU, C1orf63 / Fold change vs veh, C1orf63 / RFU, LRRFIP1 / Fold change vs veh, LRRFIP1 / RFU, NDUFAF7 / Fold change vs veh, NDUFAF7 / RFU, SLC12A2 / Fold change vs veh, SLC12A2 / RFU, IBTK / Fold change vs veh, IBTK / RFU, ESF1 / Fold change vs veh, ESF1 / Fold change vs veh, TMEM50B / RFU, TAOK1 / Fold change vs veh, TAOK1 / RFU, ACBD3 / Fold change vs veh, ACBD3 / RFU, TMA16 / Fold change vs veh, TMA16 / RFU, RWDD3 / Fold change vs veh, RWDD3 / RFU, BCAT1 / Fold change vs veh, BCAT1 / RFU, EDEM3 / Fold change vs veh, EDEM3 / RFU, TMEM33 / Fold change vs veh, TMEM33 / RFU, WDR75 / Fold change vs veh, WDR75 / RFU, AHCTF1 / Fold change vs veh, AHCTF1 / RFU, TFRC / Fold change vs veh, TFRC / RFU, ZDHHC17 / Fold change vs veh, ZDHHC17 / RFU, NOM1 / Fold change vs veh, NOM1 / RFU, ARL8B / Fold change vs veh, ARL8B / RFU, ZBTB11 / Fold change vs veh, ZBTB11 / RFU, TAMM41 / Fold change vs veh, TAMM41 / RFU, KIAA1704 /// LOC100996395 / Fold change vs veh, KIAA1704 /// LOC100996395 / RFU, ING1 / Fold change vs veh, ING1 / RFU, TRMT61B / Fold change vs veh, TRMT61B / RFU, FUBP3 / Fold change vs veh, FUBP3 / RFU, TP53 / Fold change vs veh, TP53 / RFU, TNKS2 / Fold change vs veh, TNKS2 / RFU, ZFP14 / Fold change vs veh, ZFP14 / RFU, ACTR2 / Fold change vs veh, ACTR2 / RFU, PPP3R1 / Fold change vs veh, PPP3R1 / RFU, PIK3R1 / Fold change vs veh, PIK3R1 / RFU, HNRNPA1 / Fold change vs veh, HNRNPA1 / RFU, RNF170 / Fold change vs veh, RNF170 / RFU, ZNF28 / Fold change vs veh, ZNF28 / RFU, RNGTT / Fold change vs veh, RNGTT / RFU, OGT / Fold change vs veh, OGT / RFU, BRD1 / Fold change vs veh, BRD1 / RFU, MARS / Fold change vs veh, MARS / RFU, ZNF655 / Fold change vs veh, ZNF655 / RFU, FAHD1 / Fold change vs veh, FAHD1 / RFU, BDP1 / Fold change vs veh, BDP1 / RFU, LRRCC1 / Fold change vs veh, LRRCC1 / RFU, ARID1A / Fold change vs veh, ARID1A / RFU, ZNF146 / Fold change vs veh, ZNF146 / RFU, ZNF330 / Fold change vs veh, ZNF330 / RFU, GPN3 / Fold change vs veh, GPN3 / RFU, C9orf123 / Fold change vs veh, C9orf123 / RFU, N4BP2L2 / Fold change vs veh, N4BP2L2 / RFU, ARFIP1 / Fold change vs veh, ARFIP1 / RFU, FAM179B / Fold change vs veh, FAM179B / RFU, BCL10 / Fold change vs veh, BCL10 / RFU, UHRF1BP1L / Fold change vs veh, UHRF1BP1L / RFU, BET1 / Fold change vs veh, BET1 / RFU, CNOT2 / Fold change vs veh, CNOT2 / RFU, ZNF268 / Fold change vs veh, ZNF268 / Fold change vs veh, ZNF507 / RFU, DGCR2 / Fold change vs veh, DGCR2 / RFU, WDSUB1 / Fold change vs veh, WDSUB1 / Fold change vs veh, HSP90B1 /// MIR3652 / RFU, ADSS / Fold change vs veh, ADSS / RFU, GK / Fold change vs veh, GK / RFU, ZNF148 / Fold change vs veh, ZNF148 / RFU, TAF9 / Fold change vs veh, TAF9 / RFU, SLC1A5 / Fold change vs veh, SLC1A5 / RFU, SLMO2 / Fold change vs veh, SLMO2 / RFU, ABCC4 / Fold change vs veh, ABCC4 / RFU, LOC101060439 /// RAP1B / Fold change vs veh, LOC101060439 /// RAP1B / RFU, RFX7 / Fold change vs veh, RFX7 / RFU, GTPBP10 / Fold change vs veh, GTPBP10 / RFU, CNEP1R1 / Fold change vs veh, CNEP1R1 / RFU, BIVM-ERCC5 /// ERCC5 / Fold change vs veh, BIVM-ERCC5 /// ERCC5 / RFU, ILF3 / Fold change vs veh, ILF3 / RFU 11762660_at / Fold change /veh 11762660_at / RFU VCAN (11757783_s_at) / Fold change /veh VCAN (11757783_s_at) / RFU DDX43 (11728927_at) / Fold change /veh DDX43 (11728927_at) / RFU KRT8 (11758188_x_at) / Fold change /veh KRT8 (11758188_x_at) / RFU NKD1 (11759106_at) / Fold change /veh NKD1 (11759106_at) / RFU SRD5A1 (11742802_a_at) / Fold change /veh SRD5A1 (11742802_a_at) / RFU TPSAB1 /// TPSB2 (11721975_s_at) / Fold change /veh TPSAB1 /// TPSB2 (11721975_s_at) / RFU GSTM3 (11746129_a_at) / Fold change /veh GSTM3 (11746129_a_at) / RFU IL23R (11737362_x_at) / Fold change /veh IL23R (11737362_x_at) / RFU TMEM51 (11727254_a_at) / Fold change /veh TMEM51 (11727254_a_at) / RFU PIWIL2 (11732686_x_at) / Fold change /veh PIWIL2 (11732686_x_at) / RFU ORM1 (11744905_x_at) / Fold change /veh ORM1 (11744905_x_at) / RFU CCDC152 (11743942_at) / Fold change /veh CCDC152 (11743942_at) / RFU ECM1 (11717891_a_at) / Fold change /veh ECM1 (11717891_a_at) / RFU IL23R (11748794_a_at) / Fold change /veh IL23R (11748794_a_at) / RFU TNFAIP8L3 (11732012_x_at) / Fold change /veh TNFAIP8L3 (11732012_x_at) / RFU MBOAT4 (11741988_at) / Fold change /veh MBOAT4 (11741988_at) / RFU 11764193_at / Fold change /veh 11764193_at / RFU TMEM53 (11763286_at) / Fold change /veh TMEM53 (11763286_at) / RFU MAGEB2 (11727129_at) / Fold change /veh MAGEB2 (11727129_at) / RFU TMEM200A (11744735_a_at) / Fold change /veh TMEM200A (11744735_a_at) / RFU CCDC152 (11751479_a_at) / Fold change /veh CCDC152 (11751479_a_at) / RFU FAM211A (11726209_a_at) / Fold change /veh FAM211A (11726209_a_at) / RFU RGS16 (11746705_a_at) / Fold change /veh RGS16 (11746705_a_at) / RFU VCAN (11755009_s_at) / Fold change /veh VCAN (11755009_s_at) / RFU RHOB (11743442_s_at) / Fold change /veh RHOB (11743442_s_at) / RFU RGS16 (11720943_a_at) / Fold change /veh RGS16 (11720943_a_at) / RFU RGS16 (11720944_at) / Fold change /veh RGS16 (11720944_at) / RFU, VPS4B / Fold change vs veh, VPS4B / RFU, CREB1 / Fold change vs veh, CREB1 / RFU, DNAJC13 / Fold change vs veh, DNAJC13 / RFU, GNAQ / Fold change vs veh, GNAQ / RFU, CDK5R1 / Fold change vs veh, CDK5R1 / RFU, ZRANB3 / Fold change vs veh, ZRANB3 / RFU, CUL4A / Fold change vs veh, CUL4A / RFU, CCNY / Fold change vs veh, CCNY / RFU, UFL1 / Fold change vs veh, UFL1 / RFU, COG3 / Fold change vs veh, COG3 / RFU, DIAPH2 / Fold change vs veh, DIAPH2 / RFU, SKA2 / Fold change vs veh, SKA2 / RFU, AFF3 / Fold change vs veh, AFF3 / RFU, LMF1 / Fold change vs veh, LMF1 / RFU, IPO11 / Fold change vs veh, IPO11 / RFU, DFFB / Fold change vs veh, DFFB / RFU, FOXP1 / Fold change vs veh, FOXP1 / RFU, CARD8 / Fold change vs veh, CARD8 / RFU, STRN3 / Fold change vs veh, STRN3 / RFU, ADK / Fold change vs veh, ADK / RFU, RASSF2 / Fold change vs veh, RASSF2 / RFU, WIPF1 / Fold change vs veh, WIPF1 / RFU, LARP1B / Fold change vs veh, LARP1B / RFU, RASA1 / Fold change vs veh, RASA1 / RFU, RB1 / Fold change vs veh, RB1 / RFU, PPFIA1 / Fold change vs veh, PPFIA1 / RFU, MAT2A / Fold change vs veh, MAT2A / RFU, CCT5 / Fold change vs veh, CCT5 / RFU, WDR92 / Fold change vs veh, WDR92 / RFU, CUX1 / Fold change vs veh, CUX1 / RFU, TTC7A / Fold change vs veh, TTC7A / RFU, TMEM135 / Fold change vs veh, TMEM135 / RFU, DEPTOR / Fold change vs veh, DEPTOR / RFU, CPM / Fold change vs veh, CPM / RFU, DNAJB6 / Fold change vs veh, DNAJB6 / RFU, CACNA2D3 / Fold change vs veh, CACNA2D3 / RFU, DTX4 / Fold change vs veh, DTX4 / RFU, TFCP2 / Fold change vs veh, TFCP2 / RFU, GMCL1 /// GMCL1P1 / Fold change vs veh, GMCL1 /// GMCL1P1 / RFU, AEBP2 / Fold change vs veh, AEBP2 / RFU, SNHG1 /// SNORD22 /// SNORD25 /// SNORD26 /// SNORD27 /// SNORD28 /// SNORD29 /// SNORD31 / Fold change vs veh, SNHG1 /// SNORD22 /// SNORD25 /// SNORD26 /// SNORD27 /// SNORD28 /// SNORD29 /// SNORD31 / Fold change (Aza/veh), C12orf56 (ProbeSet 11735607_a_at) / Fold change (ACY-1035/veh), C12orf56 (ProbeSet 11735607_a_at) / Fold change (Aza/veh), FGFR1OP (ProbeSet 11751329_s_at) / Fold change (ACY-1035/veh), FGFR1OP (ProbeSet 11751329_s_at) / Fold change (Aza/veh), VPS36 (ProbeSet 11739960_a_at) / Fold change (ACY-1035/veh), VPS36 (ProbeSet 11739960_a_at) / RFU SYPL1 (11715823_x_at) / Fold change /veh SYPL1 (11715823_x_at) / RFU IGFBP7 (11715501_s_at) / Fold change /veh IGFBP7 (11715501_s_at) / RFU REEP3 (11722064_at) / Fold change /veh REEP3 (11722064_at) / RFU IGLL1 (11728026_x_at) / Fold change /veh IGLL1 (11728026_x_at): dose or concentration left out as unconfirmed
Conditions: ProbeSet 11732433_s_at; LIST B

SMILES: Nc1ccc(-c2cccs2)cc1NC(=O)c1ccc2c(c1)cc(C1CC1)n2CCN1CCOCC1 [ACY-1035]
- RFU, GK: 305.66 RFU
